Experiments:
[1] = test system: TNFα secretion in LPS-stimulated human monocyte cell lines (THP-1); test: Suppression of TNFα secretion in LPS-stimulated THP-1 cells (ELISA); type: cell-based
Experimental: To identify the efficacy of the inventive compounds on suppressing a TNFα secretion in immune responses, suppression of TNFα production, which was achieved by a treatment with compounds 374, 461, 500, 530 and 532 according to the present invention in LPS-stimulated human monocyte cell lines (THP-1), was quantified by means of an enzyme immuno-assay (ELISA).
Specifically, the THP-1 cell lines (ATCC) were cultured in an RPMI-1640 medium comprising 10% FBS. The cell lines were divided into a 24 well plate at a ratio of 1×10^5 cells per well, then treated with 100 ng/mL PMA (phorbol 12-myristate 13-acetate) for 24 hours, and then differentiated into macrophage. Then, the culture medium was replaced with a new one, then treated with a test drug for 24 hours, and then treated again with 10 ng/mL LPS (E.Coli, O55:B5) for four hours for stimulation. After that, supernatant was taken and used to measure the amount of TNFα secreted from the cells by means of a Human TNFα Instant ELISA kit (eBioscience, BMS223INST) according to a protocol provided by a manufacturer.

reactive T cells = test: Treg suppression assay: proliferation of reactive T cells (eFluor670 dilution, flow cytometry); type: cell-based, mouse; conditions: Teff:Treg 2:1, three days; concentration not specified
Experimental: To identify the efficacy of the inventive compounds on suppressing the proliferation of reactive T cells in immune responses, compounds 255, 280, 374, 416 and 476 according to the present invention were cultured together with reactive T cells and regulatory T cells […], and then the suppressive efficacy of regulatory T cells was measured.
Specifically, a six-week old C57BL6 male mice were supplied from Central Lab Animal Inc., then acclimated for one week, and then used in an experiment. A spleen was isolated from the mouse, and then treated with collagenase D (Roche, 11088866001), such that splenocytes were isolated therefrom. […] were isolated by means of a CD4+CD25+ regulatory T cell isolation kit (Miltenyi Biotec, 130-091-041) according to a protocol provided by a manufacturer. Teff cells were cultured at 37° C. for ten minutes by means of eFluor®670 (Cell proliferation Dye eFluor®670, eBioscience), such that cell membranes were stained. Teff and Treg were divided into a 96 well plate at a ratio of 2:1, and then T cells were activated for three days by means of an anti-CD3E and anti-CD28 mAb magnetic bead (T cell activation/expansion kit, Miltenyi Biotec, 130-093627), such that Treg suppression assay was performed. A test drug was simultaneously treated for three days, during which the assay was performed. The divided amount of eFluor®670 labeled on the Teff cell membranes was measured, such that a degree of proliferation of T cells was evaluated accordingly. An eFluor®670-dilution plot was measured by means of a flow cytometer (FACS LSR Fortessa, BD bioscience). The suppressive ability on T cells proliferation was calculated by means of a following equation.

[2] = test system: CTLA4 (cytotoxic T-lymphocyte-associated protein 4) in the regulatory T cells; test: CTLA4 expression in regulatory T cells (iTreg) by flow cytometry; type: cell-based, mouse; conditions: for level of CTLA4 expression in the T cells (function of regulatory T cells): iTreg, six days treatment, concentration not specified
Experimental: To identify if the compounds according to the present invention regulate a function of regulatory T cells in immune responses, compounds 255, 280, 374, 416 and 476 were treated, and then an expression level of an immune checkpoint receptor CTLA4 (cytotoxic T-lymphocyte-associated protein 4) in the regulatory T cells was measured by means of flow cytometry.
Specifically, a six-week old C57BL6 male mice were supplied from Central Lab Animal Inc., then acclimated for one week, and then used in an experiment. A spleen was isolated from the mouse, and then treated with collagenase D (Roche, 11088866001), such that splenocytes were isolated therefrom. CD4+CD25-T cells were isolated by means of a CD4+CD25+ regulatory T cell isolation kit (Miltenyi Biotec, 130-091-041), and then CD4+CD25-T cells (at a ratio of 5×10^5 cells/well) were treated with an anti-CD3E/anti-CD28 mAb bead (T cell activation/expansion kit, Miltenyi Biotec, 130-093627) and a mouse recombinant TGF-β2 for six days, such that they were differentiated into iTreg. A test drug was simultaneously treated for six days, during which the cells were differentiated into iTreg. After that, the cells were incubated by means of anti-CD4/anti-CD25 mAb (eBioscience, 25-0042-82, 17-0251-82) at 4° C. for 20 minutes, and then labeling was performed. For intracytoplasmic staining, permeabilization was performed by means of Fix/permeabilization buffer (eBioscience, 00-5523-00), then labeling was performed by means of anti-FOXP3-Alexafluor488 (eBioscience, 53-5773-82) and anti-CTLA4-PE (eBioscience, 12-1522-82), and then flow cytometry was performed by means of FACS LSR Fortessa (BD bioscience).

[3] = THP-1, LPS, at both 100 nM and 300 nM
[4] = in comparison with LPS-induced control group, THP-1, concentration not specified
[5] = THP-1, LPS, on increasing concentration of compound treatment from 100 nM to 300 nM

For `O=C(NO)c1ccc(CN(C(=O)N2CCOCC2)c2cccc(CF)c2)cc1` [Compound 500, N-(3-(fluoromethyl)phenyl)-N-(4-(hydroxycarbamoyl)benzyl)morpholine-4-carboxamide], the “level of TNFα secretion” value [1, 3] was “remarkably decreased down to a level at which no inflammatory response was induced by means of the LPS” and the “level of TNFα secretion” value [1, 4] was “excellent effect”.

For `CCN1CCN(C(=O)N(Cc2ccc(C(=O)NO)cc2)c2cccc(C(F)(F)F)c2)CC1` [Compound 461, 4-ethyl-N-(4-(hydroxycarbamoyl)benzyl)-N-(3-(trifluoromethyl)phenyl)piperazine-1-carboxamide], the “level of TNFα secretion” value [1, 3] was “remarkably decreased down to a level at which no inflammatory response was induced by means of the LPS” and the “level of TNFα secretion” value [1, 4] was “excellent effect”.

`O=C(NO)c1ccc(CN(C(=O)N2CCOCC2)c2cccc(F)c2)cc1` [Compound 530, N-(3-fluorophenyl)-N-(4-(hydroxycarbamoyl)benzyl)morpholine-4-carboxamide] was tested, and the “level of TNFα secretion” value [1, 5] was “drastically decreased” and the “level of TNFα secretion” value [1, 4] was “excellent effect”.

In the case of `CN1CCN(C(=O)N(Cc2ccc(C(=O)NO)cc2)c2ccc(F)cc2F)CC1` [Compound 416, N-(2,4-difluorophenyl)-N-(4-(hydroxycarbamoyl)benzyl)-4-methylpiperazine-1-carboxamide], the “proliferation of the reactive T cells” value (reactive T cells) is reported as “excellent effect” and the “level of CTLA4 expression in the T cells (function of regulatory T cells)” value (from here on “level of CTLA4 expression in the T cells”) [2] is reported as “excellent effect”.

In the case of `O=C(NO)c1ccc(CN(C(=O)N2CCOCC2)c2cccc(Br)c2)cc1` [Compound 255, N-(3-bromophenyl)-N-(4-(hydroxycarbamoyl)benzyl)morpholine-4-carboxamide], the “proliferation of the reactive T cells” value (reactive T cells) is reported as “excellent effect”, the “level of CTLA4 expression in the T cells” value [2] is reported as “excellent effect” and the cytotoxicity ([2]; treated at 1000 nM, data analysis not performed) is reported as “severe cytotoxicity”.

For `O=C(NO)c1ccc(CN(C(=O)N2CC(F)(F)C2)c2cccc(C(F)(F)F)c2)cc1` [Compound 476, 3,3-difluoro-N-(4-(hydroxycarbamoyl)benzyl)-N-(3-(trifluoromethyl)phenyl)azetidine-1-carboxamide], the “proliferation of the reactive T cells” value (reactive T cells) was “excellent effect” and the “level of CTLA4 expression in the T cells” value [2] was “excellent effect”.

For `O=C(NO)c1ccc(CN(C(=O)N2CCOCC2)c2ccccn2)cc1` [Compound 280, N-(4-(hydroxycarbamoyl)benzyl)-N-(pyridine-2-yl)morpholine-4-carboxamide], the “proliferation of the reactive T cells” value (reactive T cells) was “excellent effect” and the “level of CTLA4 expression in the T cells” value [2] was “excellent effect”.

For `O=C(NO)c1ccc(CN(C(=O)N2CCOCC2)c2cccc(C(F)(F)F)c2)c(F)c1` [Compound 532, N-(2-fluoro-4-(hydroxycarbamoyl)benzyl)-N-(3-(trifluoromethyl)phenyl)morpholine-4-carboxamide], the “level of TNFα secretion” value [1, 5] was “drastically decreased” and the “level of TNFα secretion” value [1, 4] was “excellent effect”.
